{
  "source": "patent US5578496A",
  "about": "“Detection of autoantibodies associated with the disease myasthenia gravis” (Board of Regents, Baylor College of Medicine, priority 1994, dated 1996)",
  "key": {"[1]": {"test_system": "experimental autoimmune myasthenia gravis (EAMG)", "assay": "Electromyography (repetitive nerve stimulation) for electrophysiological EAMG after immunization with Torpedo AChR", "format": "in vivo, C57/BL6 mice", "experimental": "Six weeks old C57/BL6 mice were purchased from Charles River Breeding Laboratories (Wilmington, Mass.). Preimmune sera were obtained from the mice for use as controls in subsequent antibody binding assays. […] Then, on day 0, the mice were immunized subcutaneously in one hind footpad and intramuscularly in the same side shoulder with 20 μg of Torpedo AChR in 100 μl emulsion containing equal volumes of complete Freund's adjuvant and PBS. Thirty days later, the mice were immunized with a similar dose of the receptor in the opposite footpad and shoulder. On the 37th day, test bleeds were obtained from the mice for determination of the antibody titers. Electrophysiological studies were performed on the 38th and 39th days. Finally, the mice were sacrificed on the 40th day and lymph node cells were obtained for T cell studies. To document the electrophysiological evidence of EAMG, amplitudes of serial muscle action potentials were measured by electromyography (EMG) during the repetitive stimulation of the nerve in immunized mice, using the Mystro EMG system (TECA Corporation). A pair of wire electrodes were surgically implanted, encircling the sciatic nerve, two days before EMG. The nerve was stimulated through the implanted electrodes by 3 Hz trains of supramaximal electric current with a duration of 200 microseconds. The corresponding muscle action potentials were recorded with an electrode subcutaneously inserted over the gastrocnemius muscle. A reference electrode was placed at the ankle. Ether inhalation was used during the surgical and recording procedures. […] Students' t-test was used to analyze the differences of amplitude changes between the two groups. A typical myasthenic response of a greater than 10% decrement was considered to constitute an electrophysiological evidence of EAMG. The frequency of electrophysiological EAMG was calculated in each group and analyzed by chi-square test."}, "peptide α125-148": {"test_system": "peptide α125-148", "assay": "Radioimmunoassay of anti-AChR antisera from pretreated mice: antibody binding to peptide α125-148", "format": "in vivo, C57/BL6 mice", "experimental": "(§1) Six weeks old C57/BL6 mice were purchased from Charles River Breeding Laboratories (Wilmington, Mass.). Preimmune sera were obtained from the mice for use as controls in subsequent antibody binding assays. After 2-weeks rest, the mice were divided into three groups which received, at eleven, seven and three days before immunization with AChR, an intraperitoneal injection (5 μg in 25 μl of PBS [0.15M NaCl in 0.01M sodium phosphate buffer, pH 7.2]) of either the mPEG-(α125-148) conjugate (Group 1), mPEG-nonsense peptide conjugate (Group 2) or unaltered free peptide α125-148 (Group 3) (FIG. 5). Then, on day 0, the mice were immunized subcutaneously in one hind footpad and intramuscularly in the same side shoulder with 20 μg of Torpedo AChR in 100 μl emulsion containing equal volumes of complete Freund's adjuvant and PBS. Thirty days later, the mice were immunized with a similar dose of the receptor in the opposite footpad and shoulder. On the 37th day, test bleeds were obtained from the mice for determination of the antibody titers. Electrophysiological studies were performed on the 38th and 39th days. Finally, the mice were sacrificed on the 40th day and lymph node cells were obtained for T cell studies.\nOne mg of the synthetic peptide was dissolved in 50 μl dimethylformamide and then diluted with PBS to 25 μg/ml. A solution of Torpedo AChR in PBS was prepared to contain 2.5 μg/ml. Aliquots (50 μl/well) of the peptide or AChR solutions were added to a 96-well microtiter plate (Falcon Micro Test III flexible assay plate, Becton Dickinson, Oxcard, Calif.) and the plates were incubated at room temperature overnight. After washing 3 times with PBS, the plates were blocked with 0.25% bovine serum albumin (BSA [bovine serum albumin]) in PBS (50 μl/well) at 37° C. for 90 minutes. The plates were washed again 5 times with PBS and to each well was added 50 μl of the serum from AChR-immunized mice, pre-diluted with PBS containing 0.10% BSA, and the plates were covered and allowed to stand at room temperature overnight. After 5 washes with PBS, 50 μl of rabbit IgG antibodies (2.5 μg/ml) against mouse IgG and IgM (Accurate Chemical Scientific Corporation, Westbury, N.Y.) was added to each well and the plates were incubated at 37° C. for 3 hours. The plates were then washed 5 times with PBS and ^125 I-labeled protein A (2×10^5cpm in 50 μl of PBS-0.1% BSA) was added to each well. The plates were incubated for 3 hours at room temperature, after which they were washed and the wells were cut out and counted for bound radioactivity. Pre-immune serum samples, obtained from the mice prior to any experimental treatments, were used as controls to correct for non-specific binding."}, "whole Torpedo AChR": {"test_system": "whole Torpedo AChR", "assay": "Radioimmunoassay of anti-AChR antisera from pretreated mice: antibody binding to whole AChR", "format": "in vivo, C57/BL6 mice", "settings": "Group 1 compared to control groups; P>0.5", "experimental": "as §1, with “Finally, the mice were sacrificed on the 40th day and lymph node cells were obtained for T cell studies.” left out\n(§2) One mg of the synthetic peptide was dissolved in 50 μl dimethylformamide and then diluted with PBS to 25 μg/ml. […] The plates were incubated for 3 hours at room temperature, after which they were washed and the wells were cut out and counted for bound radioactivity. […]"}, "peptide α45-60": {"test_system": "peptide α45-60", "assay": "Radioimmunoassay of anti-AChR antisera from pretreated mice: antibody binding to peptide α45-60", "format": "in vivo, C57/BL6 mice", "settings": "Group 1 compared to control groups; P>0.1-0.5", "experimental": "as §1, with “Finally, the mice were sacrificed on the 40th day and lymph node cells were obtained for T cell studies.” left out\nas §2"}, "peptide α182-198": {"test_system": "peptide α182-198", "assay": "Radioimmunoassay of anti-AChR antisera from pretreated mice: antibody binding to peptide α182-198", "format": "in vivo, C57/BL6 mice", "settings": "Group 1 compared to control groups; P>0.1-0.5", "experimental": "as §1, with “Finally, the mice were sacrificed on the 40th day and lymph node cells were obtained for T cell studies.” left out\nas §2"}, "lymph node cells (LNC)": {"test_system": "lymph node cells (LNC)", "assay": "T cell proliferation assay of lymph node cells from AChR-primed mice", "format": "cell-based, C57/BL6 mice", "settings": "LNC challenged with overlapping Torpedo AChR α chain peptides, α125-148 and AChR; compared with mPEG-Nonsense peptide group", "experimental": "as §1, with “Thirty days later, the mice were immunized with a similar dose of the receptor in the opposite footpad and shoulder. On the 37th day, test bleeds were obtained from the mice for determination of the antibody titers. Electrophysiological studies were performed on the 38th and 39th days. Finally, the mice were sacrificed on the 40th day and lymph node cells were obtained for T cell studies.” left out\nLymph node cells (LNC) were harvested from the AChR-primed mice of each group ten or eleven days after the last AChR immunization. […] The number of viable cells was determined by vital staining with fluorescein diacetage. […] After incubation for 3 days at 37° C. in a humidified air/CO2 (19:1) atmosphere, the cultures were pulsed (18 hr) with 1 μCi/well [^3 H]-thymidine (Research Products International, Mount Prospect, Ill.) and then harvested on to glass microfiber filters (Whatman, Clinton, N.J.) for counting of radioactivity by liquid scintillation."}, "[2]": {"settings": "5 μg i.p. at 11, 7 and 3 days before immunization with Torpedo AChR, EMG on days 38-39"}},
  "note": "*1 amine or outer side, *2 acyl side, *3 side chain or, on linkers, in order; H or OH if unused. Bridges are numbered along the chain shown (N, C = ends). Where no end group is shown, it is not given here. mPEG = monomethoxypolyethylene glycol; Suc = O=C(CCC(=O)[*:2])[*:1]",
  "data": [
    {"substance": "mPEG-(α125-148): monomethoxypolyethylene glycol coupled via succinyl to the N-terminal α-NH2 of Torpedo AChR peptide α125-148 (Group 1) ({mPEG-Suc}-KSYCEIIVTHFPFDQQNCTMKLGI; disulfide 4-18 (inferred); UniProt P02710 149-172, looked up, fragment)", "values": [
      {"measurement": "mean amplitude change of muscle action potentials", "setting": "[1]; [2]", "value": -5.4, "unit": "%"},
      {"measurement": "mice showing a decremental response greater than 10%", "setting": "[1]; [2]", "value": 20, "unit": "%"},
      {"measurement": "effect on development of electrophysiological EAMG", "setting": "[1]; prior administration, then immunization with AChR", "value": "suppresses development of electrophysiological EAMG but the suppression was incomplete"},
      {"measurement": "antibody binding to peptide α125-148, mean net cpm ± standard deviation", "setting": "peptide α125-148; anti-AChR antisera of individual mice, day 37 bleeds", "value": "1414±1801", "unit": "cpm"},
      {"measurement": "antibody binding to peptide α125-148, pooled antisera in serial dilutions", "setting": "peptide α125-148; pooled serum of each group, various dilutions", "value": "consistently lower amounts of antibody binding"},
      {"measurement": "antibodies bound to peptide α125-148 in anti-AChR antisera", "setting": "peptide α125-148; pretreatment prior to immunization with Torpedo AChR", "value": "significantly decreased"},
      {"measurement": "antibodies against whole receptor", "setting": "whole Torpedo AChR", "value": "no significant suppression"},
      {"measurement": "antibodies against peptide α45-60", "setting": "peptide α45-60", "value": "no significant suppression"},
      {"measurement": "antibodies against peptide α182-198", "setting": "peptide α182-198", "value": "no significant suppression"},
      {"measurement": "T cell proliferation profiles", "setting": "lymph node cells (LNC)", "value": "did not show meaningful differences"}
    ]}
  ]
}
